Data published in EP2582674B1 (Cymabay Therapeutics, Inc., priority 2010, dated 2011).

biological target: T1, human GPR120 (Homo sapiens, UniProt Q5NUL3); assay: Intracellular Ca2+ assay in human GPR120 stable cell line (FLIPR Calcium 4 dye, Flexstation); type: cell-based; conditions: HEK293, % activity at 2.5 µM compared to the maximal activity of the compound of Example 25 at 2.5 µM (=100%); HEK293 cells co-expressing Gqi5; read-out: % Activity (Ex. 25 Reference Compound)
T1 construct: host or cells: HEK293 cells co-expressing Gqi5
T1 sequence (Q5NUL3 1-361): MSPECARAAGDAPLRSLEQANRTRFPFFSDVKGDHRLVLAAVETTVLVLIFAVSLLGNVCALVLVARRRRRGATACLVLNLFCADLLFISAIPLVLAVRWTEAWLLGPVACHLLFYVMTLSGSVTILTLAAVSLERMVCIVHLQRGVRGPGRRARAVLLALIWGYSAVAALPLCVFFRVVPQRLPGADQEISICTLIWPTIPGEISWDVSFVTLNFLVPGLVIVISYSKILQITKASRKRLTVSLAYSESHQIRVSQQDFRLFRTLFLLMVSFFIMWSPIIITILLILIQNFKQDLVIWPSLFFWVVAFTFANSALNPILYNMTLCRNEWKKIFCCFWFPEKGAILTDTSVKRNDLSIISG

Compared with `CC1(C)Cc2cc(F)cc(COc3cc(Cl)c(CCC(=O)O)c(Cl)c3)c2O1` [Example 197, 3-(2,6-dichloro-4-((5-fluoro-2,2-dimethyl-2,3-dihydrobenzofuran-7-yl)methoxy)phenyl)propanoic acid], `Cc1cc(OCc2cc(F)cc3c2OC(C)(C)C3)c(C)cc1CCC(=O)O` [Example 206, 3-(4-((5-fluoro-2,2-dimethyl-2,3-dihydrobenzofuran-7-yl)methoxy)-2,5-dimethylphenyl)propanoic acid] is lower in activity at 2.5 µM: 151% for the first, 111% for the second.

Compared with `Cc1cc(OCc2cc(F)cc3c2OC(C)(C)C3)c(F)cc1CCC(=O)O` [Example 214, 3-(5-fluoro-4-((5-fluoro-2,2-dimethyl-2,3-dihydrobenzofuran-7-yl)methoxy)-2-methylphenyl)propanoic acid], `CCc1cc(OCc2cc(F)cc3c2OC(C)(C)C3)c(F)cc1CCC(=O)O` [Example 220, 3-(2-ethyl-5-fluoro-4-((5-fluoro-2,2-dimethyl-2,3-dihydrobenzofuran-7-yl)methoxy)phenyl)propanoic acid] is lower in activity at 2.5 µM: 143% for the first, 116% for the second.

First: CCc1c(CCC(=O)O)ccc(OCc2cc(F)cc3c2OC(C)(C)C3)c1F [Example 216, 3-(2-ethyl-3-fluoro-4-((5-fluoro-2,2-dimethyl-2,3-dihydrobenzofuran-7-yl)methoxy)phenyl)propanoic acid]
Second: [2H]C([2H])(Oc1ccc(CCC(=O)O)c(CC)c1F)c1cc(F)cc2c1OC(C)(C)C2 [Example 228, 3-(4-(dideuterio(5-fluoro-2,2-dimethyl-2,3-dihydrobenzofuran-7-yl)methoxy)-3-fluoro-2-ethylphenyl)propanoic acid]
The activity at 2.5 µM of the first is higher: 144% for the first, 119% for the second.

First: CC1(C)Cc2cc(F)cc(COc3ccc(CCC(=O)O)c4c3CCCC4)c2O1 [Example 218, 3-(4-((5-fluoro-2,2-dimethyl-2,3-dihydrobenzofuran-7-yl)methoxy)-5,6,7,8-tetrahydronaphthalen-1-yl)propanoic acid]
Second: Cc1cc(CCC(=O)O)c(C)c(C)c1OCc1cc(F)cc2c1OC(C)(C)C2 [Example 254, 3-(4-((5-fluoro-2,2-dimethyl-2,3-dihydrobenzofuran-7-yl)methoxy)-2,3,5-trimethylphenyl) propanoic acid]
The activity at 2.5 µM of the first is lower: 114% for the first, 146% for the second.

First: [2H]C([2H])(Oc1ccc(CC(C)C(=O)O)cc1F)c1cc(F)cc2c1OC(C)(C)C2 (stereo not shown) [Example 230, 3-(4-(dideuterio(5-fluoro-2,2-dimethyl-2,3-dihydrobenzofuran-7-yl)methoxy)-3-fluorophenyl)-2-methylpropanoic acid]
Second: [2H]C([2H])(Oc1ccc(CC(C)C(=O)O)cc1C(F)(F)F)c1cc(F)cc2c1OC(C)(C)C2 (stereo not shown) [Example 231, 3-(4-(dideuterio(5-fluoro-2,2-dimethyl-2,3-dihydrobenzofuran-7-yl)methoxy)-3-(trifluoromethyl)phenyl)-2-methylpropanoic acid]
The activity at 2.5 µM of the first is lower: 86.2% for the first, 101% for the second.

First: [2H]C([2H])(C(=O)O)C([2H])([2H])c1ccc(OCc2cc(Cl)cc3c2OC(C)(C)C3)c(F)c1 [Example 241, 3-(4-((5-chloro-2,2-dimethyl-2,3-dihydrobenzofuran-7-yl)methoxy)-3-fluorophenyl)-2,2,3,3-tetradeuteriopropanoic acid]
Second: [2H]C([2H])(C(=O)O)C([2H])([2H])c1ccc(OCc2cc(F)cc3c2OC(C)(C)C3)c(F)c1CC [Example 243, 3-(2-ethyl-3-fluoro-4-((5-fluoro-2,2-dimethyl-2,3-dihydrobenzofuran-7-yl)methoxy)phenyl)-2,2,3,3-tetradeuteriopropanoic acid]
The activity at 2.5 µM of the first is higher: 160% for the first, 155% for the second.

Compared with `CC1(C)Cc2cc(Cl)cc(COc3ccccc3CCC(=O)O)c2O1` [Example 250, 3-(2-((5-chloro-2,2-dimethyl-2,3-dihydrobenzofuran-7-yl)methoxy)phenyl)propanoic acid], `CC(Cc1cccc(OCc2cc(Cl)cc3c2OC(C)(C)C3)c1)C(=O)O` (stereo not shown) [Example 251, 3-(3-((5-chloro-2,2-dimethyl-2,3-dihydrobenzofuran-7-yl)methoxy)phenyl)-2-methylpropanoic acid] is higher in activity at 2.5 µM: 10.2% for the first, 61.1% for the second.

Compared with `CC(C)Oc1ccc(Cl)cc1COc1cc2c(cc1F)C(CC(=O)O)CC2` (stereo not shown) [Example 257, 2-(5-((5-chloro-2-isopropoxybenzyl)oxy)-6-fluoro-2,3-dihydro-1H-inden-1-yl)acetic acid], `CC(C)Oc1ccc(Cl)cc1COc1ccc2c(c1)CCC2CC(=O)O` (stereo not shown) [Example 258, 2-(5-((5-chloro-2-isopropoxybenzyl)oxy)-2,3-dihydro-1H-inden-1-yl)acetic acid] is higher in activity at 2.5 µM: 125% for the first, 140% for the second.

Compared with `CC(C)Oc1ncccc1COc1ccc2c(c1)CCC2CC(=O)O` (stereo not shown) [Example 259, 2-(5-((2-isopropoxypyridin-3-yl)methoxy)-2,3-dihydro-1H-inden-1-yl)acetic acid], `CC(C)C(CC(=O)O)c1ccc(OCc2cc(Cl)cc3c2OC(C)(C)C3)cc1` (stereo not shown) [Example 266, 3-(4-((5-chloro-2,2-dimethyl-2,3-dihydrobenzofuran-7-yl)methoxy)phenyl)-4-methylpentanoic acid] is lower in activity at 2.5 µM: 118% for the first, 42.7% for the second.

Going from `CC(Cc1cc(F)c(OCc2cccc3cn[nH]c23)c(F)c1)C(=O)O` (stereo not shown) [Example 260, 3-(4-((1H-indazol-7-yl)methoxy)-3,5-difluorophenyl)-2-methylpropanoic acid] to `Cc1nc2cccc(COc3c(F)cc(CC(C)C(=O)O)cc3F)c2o1` (stereo not shown) [Example 261, 3-(3,5-difluoro-4-((2-methylbenzo[d]oxazol-7-yl)methoxy)phenyl)-2-methylpropanoic acid], the activity at 2.5 µM rises from 16.7% to 109%.

Going from `CC1(C)Cc2cc(F)cc(COc3ccc4c(CC(=O)O)coc4c3)c2O1` [Example 262, 2-(6-((5-fluoro-2,2-dimethyl-2,3-dihydrobenzofuran-7-yl)methoxy)benzofuran-3-yl)acetic acid] to `CC1(C)Cc2cc(F)cc(COc3ccc4c(CC(=O)O)cc(=O)oc4c3)c2O1` [Example 263, 2-(7-((5-fluoro-2,2-dimethyl-2,3-dihydrobenzofuran-7-yl)methoxy)-2-oxo-2H-chromen-4-yl)acetic acid], the activity at 2.5 µM falls from 137% to 5.98%.

Going from `CC(Cc1ccc(OCc2cc(F)cc3c2OC(C)(C)C3)cc1)C(=O)NO` (stereo not shown) [Example 264, 3-(4-((5-fluoro-2,2-dimethyl-2,3-dihydrobenzofuran-7-yl)methoxy)phenyl)-N-hydroxy-2-methylpropanamide] to `Cc1c(CCC(=O)O)ccc(OCc2cc(Cl)cc3c2CC(C)(C)O3)c1C` [Example 267, 3-(4-((6-chloro-2,2-dimethyl-2,3-dihydrobenzofuran-4-yl)methoxy)-2,3-dimethylphenyl)propanoic acid], the activity at 2.5 µM rises from 110% to 141%.

same assay, conditions: eight concentrations from 0.00001 to 20 µM; changes (Max-Min) of fluorescence intensity

Compared with `CC1(C)Cc2cc(Cl)cc(COc3ccccc3CCC(=O)O)c2O1` [Example 250, 3-(2-((5-chloro-2,2-dimethyl-2,3-dihydrobenzofuran-7-yl)methoxy)phenyl)propanoic acid], `CC(Cc1cccc(OCc2cc(Cl)cc3c2OC(C)(C)C3)c1)C(=O)O` (stereo not shown) [Example 251, 3-(3-((5-chloro-2,2-dimethyl-2,3-dihydrobenzofuran-7-yl)methoxy)phenyl)-2-methylpropanoic acid] is lower in EC50: over 10 µM for the first, 1 to 10 µM for the second.

system: C57BL/6J mice; assay: Intra peritoneal glucose tolerance test (IPGTT); type: in vivo; conditions: Mus musculus, 2 h; 30 mg/kg oral gavage 30 min before 2g/kg glucose intra peritoneally; overnight fasted male C57BL/6J mice; incremental AUC of glucose excursion vs vehicle; read-out: % reduction IPGTT at 30mg/kg
Protocol: 8-10 week old male C57BL/6J mice (Harlan) were maintained on regular chow diet from Harlan (2018 Teklad Global). On the day before the experiment mice were fasted overnight, then randomized into groups (n=10-15) to receive the tested GPR120 agonist at doses ranging from 100mg/kg or the vehicle (1% CMC, 2% TWEEN 80). Compounds were delivered orally via gavage at 10mL/kg. Blood glucose levels were measured by glucometer (Ascensia Elite XL, Bayer) at time -30 minutes before administration of compound. Blood glucose was measured again after 30 minutes (at time 0), and then the mice were dosed intra peritoneally with 2g/kg glucose at 10mL/kg. Blood glucose measurements were taken 20, 40, 60, 90 and 120 minutes after glucose administration, by glucometer (Ascensia Elite XL, Bayer).
Glucose levels were plotted against time, and the incremental area under the curve (AUC) of the glucose excursion was determined from time 0 using Graphpad Prism 5.01. Outliers were excluded using Tukey's box plot outlier test, and statistical significance of differences in AUC of compound treatment compared to vehicle was determined by non-parametric Kruskal-Wallis test with Dunn's post test.
The compounds were tested at 30 mg/kg and the levels of blood glucose were determined in the presence and absence of the tested compounds. The percentage of glucose reduction is reported. The tested compounds were selected as Examples from the exemplified compounds. […]

Going from `CC1(C)Cc2cc(F)cc(COc3ccc(C4CC4C(=O)O)cc3)c2O1` (racemic) [Example 131 (racemic), 2-(4-((5-fluoro-2,2-dimethyl-2,3-dihydrobenzofuran-7-yl)methoxy)phenyl) cyclopropanecarboxylic acid] to `CC1(C)Cc2cc(F)cc(COc3ccc(CCC(=O)O)cc3)c2O1` [Example 132, 3-(4-((5-fluoro-2,2-dimethyl-2,3-dihydrobenzofuran-7-yl)methoxy)phenyl)propanoic acid], the inhibition in vivo at 30 mg/kg falls from 23.1% to 6.5%.

First: CC1(C)Cc2cc(Cl)cc(COc3ccc(CCC(=O)O)c4c3CCC4)c2O1 [Example 64, 3-(7-((5-chloro-2,2-dimethyl-2,3-dihydrobenzofuran-7-yl)methoxy)-2,3-dihydro-1H-inden-4-yl)propanoic acid]
Second: C[C@@H](Cc1ccc(OCc2cc(Cl)cc3c2OC(C)(C)C3)c(F)c1)C(=O)O [Example 142, (S)-3-(4-((5-chloro-2,2-dimethyl-2,3-dihydrobenzofuran-7-yl)methoxy)-3-fluorophenyl)-2-methylpropanoic acid]
The inhibition in vivo at 30 mg/kg of the first is lower: 24.9% for the first, 36.2% for the second.

For `CCOc1cc(OCc2cc(F)cc3c2OC(C)(C)C3)ccc1CCC(=O)O` [Example 268, 3-(2-ethoxy-4-((5-fluoro-2,2-dimethyl-2,3-dihydrobenzofuran-7-yl)methoxy)phenyl)propanoic acid], the inhibition in vivo at 30 mg/kg was 23%.
